Results published in EP0216105A1, “Diazaphosphorines, process for their preparation and their use as pesticide” (priority 1985, dated 1987).

Key:
[1] = system: Haemonchus contortus; test: In vivo nematode test, infected sheep (egg count in faeces); set-up: species or system Schafe; conditions: sheep infected with normally sensitive or benzimidazole-resistant Haemonchus contortus, oral, pure active substance in gelatin capsules, worm egg count before and after treatment; for minimal effective dose: read-out: Dosis effectiva
Text: Haemonchus contortus 1 Schaf
Experimentell mit normal empfindlichen bzw. mit gegen Benzimidazol-Anthelmintika resistenten Haemonchus contortus infizierte Schafe wurden nach Ablauf der Präpatenzzeit des Parasiten behandelt. Die Wirkstoffe wurden als reiner Wirkstoff in Gelatinkapseln oral appliziert.
Der Wirkungsgrad wird dadurch bestimmt, daß man die mit dem Kot ausgeschiedenen Wurmeier vor und nach der Behandlung quantitativ auszählt.
Ein völliges Sistieren der Eiausscheidung nach der Behandlung bedeutet, daß die Würmer abgetrieben wurden oder so geschädigt sind, daß sie keine Eier mehr produzieren.

[2] = system: Caenorhabditis elegans; test: In vitro nematode test; conditions: Caenorhabditis elegans, 168 h, concentration at which reproduction is prevented; 7 days at 22°C; read-out: Dosis effectiva
Procedure: 10-^4 g Wirkstoff wurden in 1 ml Wasser oder 0,1 ml Dimethylsulfoxid (DMSO) gelöst. Diese Lösung wurde auf eine Replica-Platte gegeben. Dazu wurden 2 ml einer E-coli-Suspension gegeben, in der man 10-20 weibliche Tiere oder Larven von Caenorhabditis elegans in 0,5 ml M9 Pufferlösung gegeben hat. Die E-coli-Suspension wurde hergestellt indem man 300 ml einer Ubernachthalter eines Uracil-bedürftigen E-coli-Stammes mit 1,8 1 steriler M 9 Pufferlösung versetzte.
Der Versuchsansatz wurde 7 Tage bei 22°C inkubiert und danach ausgewertet. Es wurde bewertet inwieweit der Wirkstoff die Vermehrung beeinträchtigt und die Konzentration angegeben bei der die Vermehrung verhindert wird.

[3] = system: Musca domestica-tmultiresistent) Maden; test: Fly maggot development inhibition test; format: in vivo; conditions: Musca domestica maggots on treated filter paper, 14 days; compared with the prior art; figures not given
Procedure: Fliegenmaden-Entwicklungshommungstest Testtiere: Musca domestica-tmultiresistent) Maden Lösungsmittel: Aceton
2 Gewichtsteile Wirkstoff werden in 1 000 Volumenteilen Lösungsmittel aufgenommen. Die so erhaltene Lösung wird mit weiteren Lösungsmitteln auf die gewünschten Konzentrationen verdünnt.
2,5 ml Wirkstofflösung werden in eine Petrischale pipettiert. Auf dem Boden der Petrischale befindet sich ein Filterpapier mit einem Durchmesser von etwa 9,5 cm. Die Petrischale bleibt so lange offen stehen, bis das Lösungsmittel vollständig verdunstet ist. Je nach Konzentration der Wirkstofflösung ist die Menge Wirkstoff pro m^2 Filterpapier verschieden hoch. Anschließend gibt man etwa 25 Testtiere in die Petrischale und bedeckt sie mit einem Glasdeckel.
14 Tage nach Ansetzen der Versuche wird die Zahl der geschlüpften Fliegen kontrolliert. Bestimmt wird der X-Satz der Schlüpfhemmung im Vergleich zur unbehandelten Kontrolle.

[4] = system: Strongyloides ratti; test: In vivo nematode test, infected rats; set-up: species or system Ratten; conditions: dose at which 95% of the parasites were killed, oral by gavage on three consecutive days from day 7 after infection; for ED95: Strongyloides ratti, killed day 13, read-out: effektive Dosis
Text: Experimentell mit Strongyloides ratti infizierte Ratten werden 7 Tage nach der Infektion an drei aufeinanderfolgenden Tagen oral mittels Schlundsonde behandelt. Die Tiere werden 13 Tage nach der Infektion getötet und die Zahl der Parasiten bestimmt. Es wird die […] angegeben, bei der 95% der Parasiten abgetötet wurden (effektive Dosis): […]

[5] = system: Raupe (L5) der Art Spodoptera frugiperda; test: Spodoptera test (treated artificial diet discs); format: in vivo; conditions: Spodoptera frugiperda caterpillars (L5) on treated artificial diet; compared with the prior art; figures not given
Text: (§1) • Lösungsmittel: 3 Gewichtsteile Aceton • Emulgator: 1 Gewichtsteil Alkylarylpolyglykolether
Zur Herstellung einer zweckmäßigen Wirkstoffzubereitung vermischt man 1 Gewichtsteil Wirkstoff mit der angegebenen Menge Lösungsmittel und der angegebenen Menge Emulgator und verdünnt das Konzentrat mit Wasser auf die gewünschte Konzentrationen.
Kunstfutterscheiben, die in Plastikdosen liegen, werden durch Beträufeln mit der Wirkstoffzubereitung der gewünschten Konzentration behandelt. Nach Eindringen der Lösung besetzt man die Plastikdosen mit je 1 Raupe (L5) der Art Spodoptera frugiperda, wobei je Versuchsglied 5 Wiederholungen aufgestellt werden. Nach der Verpuppung legt man die Tiere eines Versuchsglieds in eine größere Dose. Nach der gewünschten Zeit wird die Abtötung in % bestimmt. Dabei bedeutet 100 X, daß alle Tiere abgetötet wurden; 0 X bedeutet, daß keine Tiere abgetötet wurden.

[6] = system: Mückenlarven (L4) (Aedes aegypti); test: Aedes test (larvae in aqueous preparation); format: in vivo; conditions: 20 Aedes aegypti larvae (L4) per glass; compared with the prior art; figures not given
Text: • Löcungcmittal: 3 Gewichtsteile Aceton • Emulgator: 1 Gewichtsteil Alkylarylpolyglykolether
Zur Herstellung einer zweckmäßigen Wirkstoffzubereitung vermischt man 1 Gawichtcteil Wirkstoff mit der angegebenen Menge Löcungcmittel und der angegebenen Menge Emulgator und verdünnt das Konzentrat mit Wasser auf die gewünschte Konzentrationen.
Man füllt die wässrigen Wirkctoffzubereitungen in Gläser und setzt anschließend 20 Mückenlarven (L4) (Aedes aegypti) in jedes Glas ein.
Nach der gewünschten Zeit wird die Abtötung in % bestimmt. Dabei bedeutet 100 X, daß alle Tiere abgetötet wurden; 0 % bedeutet, daß keine Tiere abgetötet wurden.

[7] = system: Heterakis spumosa; test: In vivo nematode test, infected mice; set-up: species or system Mäuse; conditions: Ganguleterakis spumosa, dose at which 95% of the parasites were killed, oral by gavage on four consecutive days from day 32 after infection, killed day 39, read-out: effektive Dosis
Text: Experimentell mit Heterakis spumosa infizierte Mäuse werden 32 Tage nach der Infektion an vier aufeinanderfolgenden Tage oral mittels Schlundsonde behandelt. Die Tiere werden 39 Tage nach der Infektion getötet und die Zahl der Parasiten bestimmt. Es wird die Wirkstoffkonzentration angegeben bei der 95% der Parasiten abgetötet wurden (effektive Dosis): […]

[8] = system: Hymenolepis nana; test: In vivo nematode test, infected mice; set-up: species or system Mäuse; conditions: Rodentolepis nana, dose at which 95% of the parasites were killed, oral by gavage on four consecutive days from day 10 after infection, killed day 17, read-out: effektive Dosis
Text: Experimentell mit Hymenolepis nana infizierte Mäuse werden 10 Tage nach der Infektion an vier aufeinanderfolgenden Tagen oral mittels Schlundsonde behandelt. Die Tiere werden 17 Tage nach Infektion getötet und die Zahl der Parasiten bestimmt. Es wird die Wirkstoffkonzentration angegeben, bei der 95% der Parasiten abgetötet wurden (effektive Dosis): […]

[9] = system: Larven (L3) des Meerrettichkäfers (Phaedon cochleariae); test: Phaedon larvae test (treated cabbage leaves); format: in vivo; conditions: Phaedon cochleariae larvae (L3) on treated Brassica oleracea leaves; compared with the prior art; figures not given
Text: as §1
Zur Herstellung einer zweckmäßigen Wirkstoffzubereitung vermischt man 1 Gewichtsteil Wirkstoff mit der angegebenen Menge Lösungsmittel und der angegebenen Menge Emulgator und verdünnt das.Konzentrat mit Wasser auf die gewünschte Konzentration.
Kohlpflanzen (Brassica oleracea) werden mit der Wirkstoffzubereitung der gewünschten Konzentration behandelt. Ein Blatt der behandelten Pflanze wird in eine Plastikdose gelegt und mit Larven (L3) des Meerrettichkäfers (Phaedon cochleariae) besetzt. Nach 2 und 4 Tagen wird jeweils ein weiters Blatt von derselben Pflanze für die Nachfütterung verwendet.
Nach der gewünschten Zeit wird die Abtötung in % bestimmt. Dabei bedeutet 100 X, daß alle Käferlarven abgetötet wurden.

[10] = system: Lucilia cuprina res.-Larven; test: Test with resistant Lucilia cuprina larvae; format: in vivo; conditions: horse meat, after 24 hours, compared with the prior art, figures not given
Text: Test mit Lucilia cuprina resistent-Larven
• Emulgator: 35 Gewichtsteile Ethylenglykolmonomethylether • 35 Gewichtsteile Nonylphenolpolyglykolether
Zur Herstellung einer zweckmäßigen Wirkstoffzubereitung vermischt man drei Gewichtsteile Wirkstoff mit sieben Gewichtsteilen des oben angegebenen Gemisches und verdünnt das so erhaltene Konzentrat mit Wasser auf die jeweils gewünschte Konzentration.
Etwa 20 Lucilia cuprina res.-Larven werden in ein Teströhrchen gebracht, welches ca. 1 cm^3 Pferdefleisch und O,5 ml der Wirkstoffzubereitung enthält. Nach 24 Stunden wird der Abtötungsgrad bestimmt.

Compound | minimal effective dose [1] | minimal effective concentration [2] | X-Satz der Schlüpfhemmung im Vergleich zur unbehandelten Kontrolle [3] | ED95 [4] | Abtötung in % [5] | Abtötung in % [6] | ED95 [7] | ED95 [8] | Abtötung in % [9] | Abtötungsgrad [10] | effektive Dosis ([4]; killed day 13) | Dosis effectiva [1]
CN1C(=O)C(C(=O)Nc2ccc(Oc3ccc(C(F)(F)F)cc3)cc2)C(=O)N(C)P1(=O)Oc1ccc(Cl)cc1 (stereo not shown) [Beispiel 3] | 50 mg/kg | – | – | – | – | – | – | – | – | – | – | –
CN1C(=O)C(C(=O)Nc2ccc(OC(F)(F)F)cc2)C(=O)N(C)P1(=S)Oc1ccccc1 (stereo not shown) [Beispiel 7] | 50 mg/kg | 10 µg/mL | überlegene Wirksamkeit gegenüber dem Stand der Technik | 50 mg/kg | überlegene Wirksamkeit gegenüber dem Stand der Technik | überlegene Wirksamkeit gegenüber dem Stand der Technik | – | – | – | – | – | –
CN1C(=O)C(C(=O)Nc2ccc(Cl)c(C(F)(F)F)c2)C(=O)N(C)P1(=O)Oc1ccc(Cl)cc1 (stereo not shown) [Beispiel 9] | 25 mg/kg | 10 µg/mL | – | 25 mg/kg | überlegene Wirksamkeit gegenüber dem Stand der Technik | überlegene Wirksamkeit gegenüber dem Stand der Technik | 25 mg/kg | 50 mg/kg | – | – | – | –
CN1C(=O)C(C(=O)Nc2ccc(Cl)c(C(F)(F)F)c2)C(=O)N(C)P1(=O)Oc1ccccc1 (stereo not shown) [Beispiel 12] | – | 10 µg/mL | – | 100 mg/kg | – | überlegene Wirksamkeit gegenüber dem Stand der Technik | 25 mg/kg | – | überlegene Wirksamkeit gegenüber dem Stand der Technik | – | – | –
CN1C(=O)C(C(=O)Nc2ccc(SC(F)(F)F)cc2)C(=O)N(C)P1(=O)Oc1ccc(Cl)cc1 (stereo not shown) [Beispiel 24] | 10 mg/kg | 10 µg/mL | überlegene Wirksamkeit gegenüber dem Stand der Technik | 10 mg/kg | überlegene Wirksamkeit gegenüber dem Stand der Technik | – | – | – | – | überlegene Wirkung gegenüber dem Stand der Technik | – | –
CN1C(=O)C(C(=O)Nc2ccc(Cl)c(C(F)(F)F)c2)C(=O)N(C)P1(=O)Oc1ccc(Cl)cc1 (stereo not shown) [Beispiel 25] | – | – | überlegene Wirksamkeit gegenüber dem Stand der Technik | – | – | – | – | – | überlegene Wirksamkeit gegenüber dem Stand der Technik | überlegene Wirkung gegenüber dem Stand der Technik | 25 mg/kg | 25 mg/kg
CCN1C(=O)C(C(=O)Nc2ccc(Oc3cccc(C(F)(F)F)c3)cc2)C(=O)N(C)P1(=O)Oc1cccc(Cl)c1 (stereo not shown) [Beispiel 47] | 10 mg/kg | – | – | – | – | – | – | – | – | – | – | –
